Measured values taken from ChEMBL document CHEMBL1158285, “Constituents from the stem wood of Euphorbia quinquecostata with phorbol dibutyrate receptor-binding inhibitory activity” (J Nat Prod, 1996).
Active and inactive are the calls of the source. The calls are words filed in the database; no cut-off is given here.

What was measured:
[1] = (§1) Displacement of [3H]PDBu from PKC in calf brain homogenate; type: tissue-based, Bos taurus
Bos taurus = organism: Bos taurus; assay: as §1; type: tissue-based

Row | Compound | IC50 [1] [µM] | Activity (Bos taurus)
1 | CC1(C)[C@H](O)CC[C@]2(C)[C@@H]1CC[C@@]13CC[C@@H](C[C@H]12)[C@](O)(CO)C3 | 73 | 
2 | CC1(C)C(=O)CC[C@]2(C)[C@@H]1CC[C@@]13CC[C@@H](C[C@H]12)[C@](O)(CO)C3 | 66 | 
3 | C=C1C[C@@]23CC[C@@H]4C(C)(C)C(=O)CC[C@@]4(C)[C@@H]2C[C@@H]1[C@H](O)C3=O | > 630 | 

Other lines, results leading:

Row | IC50 [1] [µM] | Activity (Bos taurus) | Compound
4 |  | inactive | COc1cc(OC)c(C(=O)CO)c(O)c1C
5 | > 275 |  | CCCCCCCCCCCCCCCC(=O)OCC1=C[C@@H]2C(=O)[C@]3(C=C(C)[C@H](OC(C)=O)[C@@]3(O)[C@@H]1OC(C)=O)[C@H](C)C[C@@H]1[C@H]2[C@]1(C)COC(C)=O
6 | 0.023 |  | CCCCCCCCCCCCCCCC(=O)OCC1=C[C@@H]2C(=O)[C@]3(C=C(C)[C@H](O)[C@@]3(O)[C@@H]1O)[C@H](C)C[C@@H]1[C@H]2[C@]1(C)CO
7 | 5.3 |  | CCCCCCCCCCCCCCCC(=O)OCC1=C[C@@H]2C(=O)[C@]3(C=C(C)[C@H](O)[C@@]3(O)[C@@H]1O)[C@H](C)C[C@@H]1[C@H]2C1(C)C
